Experimental data: PubChem BioAssay (NCI)
Several values for one entry are separate records, joined by “and”; a condition that tells them apart may be missing. Equal entries are not always repeated.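 Protocol summary: plate cells (96-well), add compound at 5 concentrations, incubate 48 h, interpolate endpoints linearly. GI50 is the concentration that inhibits growth by half. TGI marks complete inhibition of growth.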

Experiments:
Test in all cases: NCI tumour cell line growth inhibition, 48 h
[1] = test system: HCT-116 colon
[2] = test system: OVCAR-4 ovarian
[3] = test system: SK-MEL-5 melanoma
[4] = test system: SNB-19 CNS
[5] = test system: SR leukemia
[6] = test system: UACC-257 melanoma
[7] = test system: UACC-62 melanoma
[8] = test system: DU-145 prostate
[9] = test system: MCF7 breast
[10] = test system: MALME-3M melanoma

SMILES | TGI [1] [µM] | TGI [2] [µM] | TGI [3] [µM] | TGI [4] [µM] | TGI [5] [µM] | TGI [6] [µM] | TGI [7] [µM] | GI50 [8] [µM] | TGI [8] [µM] | GI50 [1] [µM] | GI50 [9] [µM] | TGI [9] [µM] | GI50 [2] | GI50 [3] [µM] | GI50 [4] [µM] | GI50 [5] | GI50 [6] [µM] | GI50 [7] [µM] | TGI [10] [µM] | GI50 [10] [µM]
CN(C)CCC(=O)N1CCc2c([nH]c3ccccc23)C1c1cccnc1 (configuration not stated) | > 100 | > 100 | > 100 | > 100 | > 100 | > 100 | > 100 |  |  |  |  |  |  |  |  |  |  |  |  | 
COc1cc2oc(-c3cccc(C(=O)Nc4ccc(C)cc4)c3)cc(=O)c2c(OC)c1OC | 21.8 | > 100 | 2.42 | > 100 | 40.6 | 4.5 | 6.42 | 3.21 | > 100 | 2.21 | 2.53 | > 100 | 2 µM | 1.03 | 6.49 | 2.53 µM | 1.92 | 2.35 |  | 
O=C1[C@@H]2C(c3ccncc3)=NO[C@@H]2C(=O)N1c1ccc(Cc2ccc(N3C(=O)[C@H]4C(c5ccncc5)=NO[C@H]4C3=O)cc2)cc1 |  | > 100 | > 100 |  |  | > 100 | > 100 |  |  |  |  |  |  |  |  |  |  |  | > 100 | 
Cc1ccc(S(=O)(=O)N[C@@H](Cc2ccccc2)C(=O)CCl)cc1 | > 100 | 42.6 | 28.3 | 47.2 |  | > 100 |  | 11.1 | 26.1 | 12.9 | 15.5 | 50.9 | 16.6 µM |  |  |  | 43.2 |  | 40 | 18.1
Cc1cccc2cc3cccc(C(=O)NCCN(C)C)c3nc12 | 1.54 | 2.32 | 0.825 | 6.06 | 0.118 | 1.46 | 0.386 |  |  |  |  |  |  |  |  |  |  |  | 1.11 | 
Cc1nc2ccccc2c(/C=C/c2ccccc2)c1C(=O)/C=C/c1ccc(Cl)cc1 | 1.81 | > 100 | 3.04 |  | 3.75 |  | 3.25 |  |  | 0.485 |  |  | 2.36 µM | 1.62 |  | 0.54 µM |  | 1.5 |  | 
COc1ccc(C(=O)C/C(=N/NC(N)=S)C(=O)Nc2ccccc2)cc1 | > 100 | > 100 | > 100 | > 100 |  | > 100 | > 100 |  |  |  |  |  |  |  |  |  |  |  | > 100 | 
CCOC(=O)C1=C(c2ccccc2)NC(c2ccccc2)=C(C(=O)OCC)c2c1c(=O)cc[nH]c2=O | > 100 | > 100 |  | > 100 | > 100 | > 100 | > 100 |  |  |  |  |  |  |  |  |  |  |  | > 100 | 
NC(=NCCO)c1ccc(N2CCCN(c3ccc(C(N)=NCCO)cc3)CC2)cc1 | > 100 | > 100 |  | > 100 |  | > 100 | > 100 |  |  | > 100 |  |  | > 100 µM |  | > 100 |  | > 100 | > 100 | > 100 | 72.9
CN(C)CCC(/C=C/c1ccccc1)=N\Nc1ccc(Cl)cc1 | 13.7 | 21.7 | 31.5 | 27.5 |  | 14.5 | 4.95 |  |  |  |  |  |  |  |  |  |  |  | 26.2 | 
CCOC(=O)C1=C(C)N(NC(=O)OC)C2(N)N(NC(=O)OC)C(C)=C(C(=O)OCC)C12C#N (configuration not stated) | > 100 | > 100 | > 100 | > 100 | > 100 | > 100 | > 100 |  |  |  |  |  |  |  |  |  |  |  | > 100 | 
CNC1=CC(=O)C2=C(C1=O)C1C3=C(C(=O)C(Br)=C(OC)C3=O)C2c2ccccc21 (configuration not stated) | 5.7 | 15.6 | 16.9 | 11.6 |  | > 50 | 3.89 | 5.9 | 20.8 | 1.87 | 2.65 | 26.2 | 2.3 µM | 5.46 | 2.82 |  | 4.58 | 1.47 | 17.9 | 6.84
Cc1cc(Cl)ccc1N1C(=O)C(=O)C(c2nc3ccccc3o2)C(=O)C1=O | > 100 | > 100 | > 100 | > 100 | > 100 | > 100 | > 100 |  |  |  |  |  |  |  |  |  |  |  | > 100 | 
Cc1cccc(Cl)c1NC(=O)c1cccc([N+](=O)[O-])c1O | > 100 | > 100 |  | > 100 |  | > 100 | 93.9 |  |  |  |  |  |  |  |  |  |  |  | 84.7 | 
CC(=O)OCC1OC(n2c(=S)n(-c3ccccc3)c(=O)c3cc(Br)ccc32)C(OC(C)=O)C(OC(C)=O)C1OC(C)=O (configuration not stated) | > 100 | > 100 | > 100 | > 100 | > 100 | > 100 | > 100 |  |  | > 100 |  |  | 10.6 µM and > 100 µM |  |  | > 100 µM and 12 µM |  |  | > 100 | > 100
O=[N+]([O-])c1ccc2nc3ccscc-3c2c1 |  | 31.4 | 33.1 | > 100 |  | > 100 | 65.6 |  |  |  |  |  |  |  |  |  |  |  | > 100 | 

SMILES | TGI [1] [µM] | TGI [2] [µM] | TGI [3] [µM] | TGI [4] [µM] | TGI [5] [µM] | TGI [6] [µM] | TGI [7] [µM] | GI50 [8] [µM] | TGI [8] [µM] | GI50 [1] [µM] | GI50 [9] [µM] | TGI [9] [µM] | GI50 [2] | GI50 [3] [µM] | GI50 [4] [µM] | GI50 [5] | GI50 [6] [µM] | GI50 [7] [µM] | TGI [10] [µM] | GI50 [10] [µM]
C/C=C/C=C/CCCCCCCCCCCCC[C@]1(OC)C=CC(CC(=O)OC)OO1 (some centres not stated) | 29.6 | 25.9 | 31.1 |  |  | 45.6 | 29.8 |  |  |  |  |  | 12.5 µM |  |  |  |  |  | 77.5 | 
C=C[Si](C)(C)COC(=O)/C(C#N)=C/C=C/c1ccccc1 | > 100 | > 100 | > 100 | > 100 | 79.9 | > 100 | > 100 |  |  |  |  |  |  |  |  |  |  |  | > 100 | 
NC1=NCC(c2ccccn2)C1c1ccc(F)cc1 (configuration not stated) | > 100 | > 100 | > 100 | > 100 | > 100 | > 100 | > 100 |  |  |  |  |  |  |  |  |  |  |  | > 100 | 
COC(=O)c1ccc(NC(N)=NCC(C)(C)COc2ccc(C(F)(F)F)cc2)nc1 |  |  |  |  |  | 3.27 | 3.1 | 1.7 | 3.2 |  | 1.52 | 3.28 |  |  |  |  | 1.69 | 1.66 | 3.48 | 1.72
Cc1ccccc1NC(=O)C(=O)CC(=O)C1CCOC1=O (configuration not stated) | > 100 | > 100 | > 100 | > 100 |  | > 100 | > 100 |  |  |  |  |  |  |  |  |  |  |  | > 100 | 
CC1(C)Cc2nnsc2C2=C1C(=O)CCS2 |  | > 100 | > 100 | > 100 |  | > 100 | > 100 |  |  |  |  |  |  |  |  |  |  |  | > 100 | 
Cc1cc(S(=O)(=O)Nc2nc3ccccc3[nH]2)c(SCc2ccccc2)cc1Cl | > 100 |  | > 100 | > 100 | > 100 | > 100 | > 100 | > 100 | > 100 | 51.6 | > 100 | > 100 |  | > 100 | 36 | 26.1 µM | > 100 | > 100 |  | 
O=C1c2ccccc2C(=O)c2sc(Nc3ccc(Cl)cc3)nc21 | 3.4 | 4.12 | 3.6 | 9.71 | 5.84 | 3.28 | 4.05 |  |  |  |  |  |  |  |  |  |  |  | 3.25 | 
Cc1cccc(C)c1NC(=O)CCCC(=O)C(C#N)c1ccc(Cl)cc1 (configuration not stated) | > 100 | > 100 | > 100 | > 100 | > 100 | > 100 | > 100 |  |  |  |  |  |  |  |  |  |  |  | > 100 | 
C=C(CN(C)Cc1ccccc1)c1ccc(C(=O)Nc2ccccc2N)cc1 | 21.9 | > 50 | 14.6 | 43.2 | > 50 |  | 18.4 | 1.64 | 11.9 | 8.6 | 16.8 | > 50 | 8.28 µM | 6.72 | 6.47 | 2.87 µM |  | 2.16 |  | 
C[CH2][Ge]([CH2]C)([CH2]C)[O]C(=O)C([O][Ge]([CH2]C)([CH2]C)[CH2]C)c1ccccc1 (configuration not stated) | 30.2 | > 100 | 26.8 | 96.1 | 75.4 | 58.4 | 30.7 |  |  | 13.9 |  |  | 6.36 µM | 11.8 | 32.5 | 14.5 µM | 15.2 | 14.5 | > 100 | 16.8
COc1ccc(C2N3CCCCC3[C@@H]3c4[nH]c5ccccc5c4CCN23)c(OC)c1 (some centres not stated) | 38 | 56.5 | 32.7 | > 100 |  | 72.4 | 31 |  |  |  |  |  |  |  |  |  |  |  |  | 
CC(C)(C)c1cc(-c2c3nc(c(-c4cc(C(C)(C)C)cc(C(C)(C)C)c4)c4ccc([nH]4)c(-c4cc(C(C)(C)C)cc(C(C)(C)C)c4)c4nc(c(-c5cc(C(C)(C)C)cc(C(C)(C)C)c5)c5ccc2[nH]5)C=C4)C=C3)cc(C(C)(C)C)c1 | > 100 | > 100 | > 100 | > 100 | > 100 | > 100 | > 100 |  |  |  |  |  |  |  |  |  |  |  | > 100 | 
CC1NCCc2c1[nH]c1cc(O)ccc21 (configuration not stated) | > 100 | > 100 | > 100 | > 100 |  | > 100 | > 100 |  |  |  |  |  |  |  |  |  |  |  | > 100 | 
COc1ccc(Nc2ncc(-c3ccccc3)o2)cc1OC | > 25 | > 25 | > 25 | > 25 |  | > 25 | > 25 | 10.7 | > 25 | 9.37 | > 25 | > 25 | > 22.2 µM | > 25 | > 25 |  | > 25 | > 22.3 | > 25 | > 25
